# Test results as given in patent US20160160294A1, “METHODS AND MATERIALS FOR PREDICTING RESPONSE TO NIRAPARIB” (Tesaro, priority 2014, published 2016).
# Like-named read-outs stand apart in the source and are kept apart here.
# How the values were obtained:
# [1] = test system: TNBC patient-derived xenograft (PDX) models
# Experimental: Mice were assigned to homogeneous groups of 10 animals when tumors reached a size of 70-200 mm^3, and were treated with niraparib at 50 mg/kg or 75 mg/kg once a day for 28 days. The compound was delivered by gavage (p.o) under a volume of […] for a 25-g mouse. Tumor volume was evaluated by measuring biweekly tumor diameters with a caliper.
# [2] = test system: ovarian cancer PDX models
# Experimental: A series of ovarian tumors were implanted orthotopically in mice and the resulting patient-derived xenograft (PDX) models were evaluated for niraparib sensitivity by ultrasound imaging. The BRCA status (mutated “BRCAmut” or wild-type “BRCAwt”) of each PDX model was evaluated, with BRCA1/2 variants identified by the test were classified in accordance with the recommendations of the American College of Medical Genetics and Genomics (ACMG) for standards in the interpretation and reporting of sequence variations. HRD scores were also determined for the PDX models as described in Examples 1 & 2.
# [3] = test system: basal breast cancer (BBC) patient-derived xenograft (PDX) models; conditions: subset of BBC PDX models; cited from earlier work
smiles,measurement,setting,value
NC(=O)c1cccc2cn(-c3ccc([C@@H]4CCCNC4)cc3)nc12 [niraparib],effect on tumor volume,[1]; T330 model (FIG. 8),regression of tumor volume
same,number of TNBC PDX models whose growth was significantly inhibited,"[1]; among 20 tested, 50 mg/kg or 75 mg/kg once a day for 28 days, p.o.",6
same,activity in TNBC PDX models,[1]; subset of TNBC PDX models,robust activity
same,Response rate,[2]; All models (8/26),31% (8/26)
same,Response rate,[2]; BRCA1/2 deficient models (4/8),50% (4/8)
same,Response rate,[2]; HRD+ BRCA wt models (4/8),50% (4/8)
same,response of BBC PDX models to single agent treatment,[3],responded robustly
